Assay results from US9845335B2, “Sofosbuvir in crystalline form and process for its preparation” (HC-PHARMA AG, priority 2014, dated 2017).

Tests used:
Format in all cases: physicochemical
[1] = Powder properties of the crystalline form (bulk and tapped density, compressibility, Hausner ratio)
[2] = Particle size distribution (PSD)
[3] = Stability and hygroscopicity of the crystalline form; details: statement in words, no data
[4] = product of Example 1 (from isobutyl methyl ketone)

CC(C)OC(=O)[C@H](C)N[P@](=O)(OC[C@H]1O[C@@H](n2ccc(=O)[nH]c2=O)[C@](C)(F)[C@@H]1O)Oc1ccccc1 [Sofosbuvir Form α]
Bulk Density [1]: 0.22 g/mL
Compressibility index [1]: 24.4
Hausner ratio [1]: 1.32
Tapped Density [1]: 0.29 g/mL
PSD: size of the 90% of the particles ([2]; general characterisation of the form): 10 to 50 μm
PSD d(0.1) [2, 4]: 1.831 μm
PSD d(0.5) [2, 4]: 5.263 μm
PSD d(0.9) [2, 4]: 20.369 μm
Hygroscopicity [3]: not hygroscopic
Stability of the crystalline form [3]: stable
